What was measured:
rat small intestine = test: In situ closed-loop (Doluisio) intestinal perfusion; type: in vivo; conditions: 100 µM, n = 4
Method: The animal experiments, performed on 250–300 g male Wistar rats, were designed following the guidelines described in EC Directive 86/609, Council of the Europe Convention ETS 123 and Spanish national laws about the use of animals in research, and were approved by the Spanish Committee (Spain, code A1330354541263).
The “closed-loop” in situ perfusion method, based on the Doluisio technique, was performed according to published reports. Briefly, in anesthetized rats in which an abdominal incision was made, the small intestine was located and the bile duct was ligated avoiding enterohepatic circulation of the drug. The procedure for making three loops in the duodenum, jejunum, and ileum was the same as previously described. Intestinal contents were removed by washing with physiological solutions and the peritoneal cavity was covered with cotton wool pads to prevent evaporation of peritoneal fluid and loss of body heat.
A solution of JM-20 (100 µM) was perfused with one syringe, and 5 min later the sample was collected with the other syringe. This procedure was performed alternatively for 30 min to ensure mixing of the solution in the lumen of small intestine. Samples were immediately analyzed for JM-20 at maximum wavelengths (λmax = 262 nm) by HPLC (Alliance-Waters 2695) using a Nova-Pak C18 column (4 μM, 3.9 × 150 mm) and UV detector (Waters 2487). The analytical procedure was as follows previously validated. The exact length of the intestine was determined at the end of the study.
The calculation of permeability takes into account that water flux during the experiment can be significant, the drug concentration in each sample was modified according to the following Equation (3):(3) C=CeVT/V0 where Ct represents the concentration without water reabsorption at time t, Ce is the experimental concentration value, V0 is the initial volume and Vt is the final volume. The coefficient of absorption rate (ka) and the initial concentration of JM-20 available for absorption (C0) were determined by non-linear regression of the following Equation (4):(4) Ct=C0·e^−kat […]

[1] = Apparent permeability across MDCK-MDR1 monolayers; type: in vitro ADME, Canine; conditions: dog, 37 °C, stirring at 50 rpm
Method: (§1) MDCK (Madin–Darby Canine Kidney) cells, their transfected clone MDCK-MDR1, and Caco-2 cells were grown in the modified Dulbecco Eagle medium added with L-glutamine, fetal bovine serum and penicillin−streptomycin. The number of cells seeded in transwells with a surface area of 4.2 cm^2 depended on the cell line: 250,000 cells/cm^2 for MDCK and Caco-2 and 150,000 cells/cm^2 for MDCK-MDR1. Experiments were performed between 7 and 9 days for MDCK and MDCK-MDR1 and between 19 and 21 for Caco-2 cells after seeding. Prior to drug placement, cell monolayer integrity was assessed by measuring transepithelial electrical resistance (TEER). Transport studies were performed on an orbital shaker at 37 °C and 50 rpm. Four samples of 200 μL were taken from the receptor side at 0, 15, 30, 60 and 90 min, and two samples from the donor compartment at the beginning and end of the experiment. A standard experiment was performed with the same buffer for the apical and basolateral compartments in the apical to basolateral (A-B) and basolateral to apical (B-A) directions. The drug concentration was 100 μM in all experiments and samples were analyzed immediately by HPLC. The retention time was 2.3 min at maximum wavelengths (λmax = 260 nm). […] The lower limit of quantitation of JM-20 was adequate to interpolate the values obtained in the samples. […]

[2] = target: T1, P-glycoprotein transporter (MDR1) (Homo sapiens, UniProt P08183); test: P-glycoprotein substrate assessment (B-A permeability MDCK-MDR1 vs MDCK); type: in vitro ADME; conditions: B-A permeability higher in MDCK-MDR1 than in MDCK (p < 0.05)
T1 construct: expressed in transfected cells; host or cells: MDCK-MDR1 (transfected clone of Madin-Darby Canine Kidney cells)
Method: as §1

[3] = set-up: method as in earlier work; conditions: pH 4.5 and 6.8, 24 h, 37 ± 1°C; cited from earlier work

T1 sequence (P08183 whole entry): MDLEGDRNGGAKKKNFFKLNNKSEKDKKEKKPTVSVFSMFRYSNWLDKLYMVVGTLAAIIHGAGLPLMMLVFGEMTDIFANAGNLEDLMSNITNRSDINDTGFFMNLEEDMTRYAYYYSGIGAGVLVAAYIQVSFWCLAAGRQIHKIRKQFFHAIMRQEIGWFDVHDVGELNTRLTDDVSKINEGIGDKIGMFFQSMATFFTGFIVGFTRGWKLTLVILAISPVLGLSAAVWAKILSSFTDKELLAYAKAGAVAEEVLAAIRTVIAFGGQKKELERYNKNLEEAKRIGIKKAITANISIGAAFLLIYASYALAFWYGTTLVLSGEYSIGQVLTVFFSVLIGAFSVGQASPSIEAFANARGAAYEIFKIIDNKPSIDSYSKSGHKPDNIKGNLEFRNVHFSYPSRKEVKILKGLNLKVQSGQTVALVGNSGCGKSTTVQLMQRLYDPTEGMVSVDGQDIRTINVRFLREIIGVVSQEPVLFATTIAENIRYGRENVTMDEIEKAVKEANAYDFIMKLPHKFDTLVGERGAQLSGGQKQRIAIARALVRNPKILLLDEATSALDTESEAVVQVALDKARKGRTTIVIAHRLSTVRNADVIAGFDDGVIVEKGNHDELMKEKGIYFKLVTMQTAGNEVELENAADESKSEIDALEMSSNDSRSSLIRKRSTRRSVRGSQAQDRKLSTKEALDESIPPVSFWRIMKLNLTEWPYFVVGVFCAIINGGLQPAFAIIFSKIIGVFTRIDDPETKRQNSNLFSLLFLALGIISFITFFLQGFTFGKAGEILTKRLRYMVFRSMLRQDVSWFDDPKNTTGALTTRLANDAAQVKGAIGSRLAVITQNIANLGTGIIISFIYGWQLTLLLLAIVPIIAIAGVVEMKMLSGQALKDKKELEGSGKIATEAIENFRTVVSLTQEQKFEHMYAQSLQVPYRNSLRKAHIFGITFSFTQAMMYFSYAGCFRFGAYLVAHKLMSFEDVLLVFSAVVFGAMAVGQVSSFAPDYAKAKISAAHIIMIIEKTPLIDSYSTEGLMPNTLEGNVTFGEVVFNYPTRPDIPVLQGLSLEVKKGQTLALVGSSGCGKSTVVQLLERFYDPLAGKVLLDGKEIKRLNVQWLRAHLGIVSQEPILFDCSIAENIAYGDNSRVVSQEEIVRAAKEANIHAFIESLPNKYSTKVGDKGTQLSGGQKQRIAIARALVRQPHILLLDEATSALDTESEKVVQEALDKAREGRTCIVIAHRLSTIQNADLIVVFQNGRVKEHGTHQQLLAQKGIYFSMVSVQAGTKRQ

With `CCOC(=O)C1=C(C)NC2=C(C=Nc3ccccc3N2)C1c1ccccc1[N+](=O)[O-]` (stereo not shown) [JM-20, 3-ethoxycarbonyl-2-methyl-4-(2-nitrophenyl)-4,11-dihydro-1H-pyrido [2,3-b][1,5] benzodiazepine] the “Peff ± SD” value (rat small intestine; Duodenum) was 9.20 ± 0.89 ×10^−5 cm/s, the “Peff ± SD” value (rat small intestine; Ileum) was 6.82 ± 1.44 ×10^−5 cm/s and the “Peff ± SD” value (rat small intestine; Jejunum) was 6.63 ± 1.30 ×10^−5 cm/s. For the same compound, the Papp A→B at 90 min, 100 µM [1] was 217 ± 22 nm/s, the Papp B→A at 90 min, 100 µM [1] was 96 ± 5 nm/s and the “Substrate of the P-glycoprotein transporter (MDR1)” value [2] was “substrate of the P-glycoprotein transporter (MDR1)”. For the same compound, the “Qualitative stability in aqueous medium” value [3] was “some degradation”.

Reference: paper PMC8780741, “Integration of In Silico, In Vitro and In Situ Tools for the Preformulation and Characterization of a Novel Cardio-Neuroprotective Compound during the Early Stages of Drug Development” (Pharmaceutics, 2022)
